Results: ChEMBL document CHEMBL1201862, “PubChem BioAssay data set” (2004)
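How tested: cells in 96-well plates exposed to compound for 48 hours at five concentrations. GI50 is the concentration that inhibits growth by half.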 Calls of active or inactive are those of the source. Rule as the data show it: active = GI50 up to about 1.1 µM and inactive = higher.

Key:
Experiment in all cases: NCI-60 cell line screen, 48 h
CCRF-CEM = test system: CCRF-CEM
SK-OV-3 = test system: SK-OV-3
U-251 = test system: U-251
HOP-62 = test system: HOP-62
HCT-15 = test system: HCT-15
NCI-H460 = test system: NCI-H460
M14 = test system: M14
DLD-1 = test system: DLD-1
XF498 = test system: XF498
OVCAR-4 = test system: OVCAR-4
HCC 2998 = test system: HCC 2998
HOP-92 = test system: HOP-92
DMS-273 = test system: DMS-273
SK-MEL-2 = test system: SK-MEL-2
NCI-H226 = test system: NCI-H226
OVCAR-8 = test system: OVCAR-8
A549 = test system: A549
786-0 = test system: 786-0
SK-MEL-28 = test system: SK-MEL-28
OVCAR-3 = test system: OVCAR-3
RPMI-8226 = test system: RPMI-8226
UACC-62 = test system: UACC-62
HCT-116 = test system: HCT-116
SF-539 = test system: SF-539
DMS-114 = test system: DMS-114
CAKI-1 = test system: CAKI-1
SK-MEL-5 = test system: SK-MEL-5
NCI-H522 = test system: NCI-H522
LOX IMVI = test system: LOX IMVI
OVCAR-5 = test system: OVCAR-5
RXF 631 = test system: RXF 631
SW-620 = test system: SW-620
MOLT-4 = test system: MOLT-4
K562 = test system: K562
COLO 205 = test system: COLO 205
Malme-3M = test system: Malme-3M
HL-60 = test system: HL-60
NCI-H23 = test system: NCI-H23
LXFL 529 = test system: LXFL 529
A498 = test system: A498
HT-29 = test system: HT-29
SN12C = test system: SN12C
KM-20L2 = test system: KM-20L2
SNB-19 = test system: SNB-19
M19-MEL = test system: M19-MEL
KM12 = test system: KM12
RXF 393 = test system: RXF 393
TK-10 = test system: TK-10
HOP-18 = test system: HOP-18
SNB-75 = test system: SNB-75
SF-295 = test system: SF-295
EKVX = test system: EKVX
ACHN = test system: ACHN
SF-268 = test system: SF-268
IGROV-1 = test system: IGROV-1
UACC-257 = test system: UACC-257
SNB-78 = test system: SNB-78
SR = test system: SR
UO-31 = test system: UO-31

SMILES: O=c1[nH]c(=O)n(C2CC(O)C(CO)O2)cc1OS(=O)(=O)C(F)(F)F (stereo not given)
- GI50 (CCRF-CEM): > 100 µM (inactive)
- GI50 (SK-OV-3): > 100 µM (inactive)
- GI50 (U-251): > 100 µM (inactive)
- GI50 (HOP-62): > 100 µM (inactive)
- GI50 (HCT-15): > 100 µM
- GI50 (NCI-H460): > 100 µM (inactive)
- GI50 (M14): > 100 µM (inactive)
- GI50 (DLD-1): > 100 µM (inactive)
- GI50 (XF498): < 0.01 µM (active)
- GI50 (OVCAR-4): > 100 µM (inactive)
- GI50 (HCC 2998): > 100 µM (inactive)
- GI50 (HOP-92): > 100 µM (inactive)
- GI50 (DMS-273): > 100 µM (inactive)
- GI50 (SK-MEL-2): > 100 µM (inactive)
- GI50 (NCI-H226): > 100 µM (inactive)
- GI50 (OVCAR-8): > 100 µM (inactive)
- GI50 (A549): > 100 µM (inactive)
- GI50 (786-0): > 100 µM (inactive)
- GI50 (SK-MEL-28): > 100 µM (inactive)
- GI50 (OVCAR-3): > 100 µM (inactive)
- GI50 (RPMI-8226): > 100 µM (inactive)
- GI50 (UACC-62): 38.9 µM (inactive)
- GI50 (HCT-116): > 100 µM (inactive)
- GI50 (SF-539): > 100 µM (inactive)
- GI50 (DMS-114): > 100 µM (inactive)
- GI50 (CAKI-1): > 100 µM (inactive)
- GI50 (SK-MEL-5): > 100 µM (inactive)
- GI50 (NCI-H522): > 100 µM (inactive)
- GI50 (LOX IMVI): > 100 µM (inactive)
- GI50 (OVCAR-5): > 100 µM (inactive)
- GI50 (RXF 631): > 100 µM (inactive)
- GI50 (SW-620): > 100 µM (inactive)
- GI50 (MOLT-4): > 100 µM (inactive)
- GI50 (K562): > 100 µM (inactive)
- GI50 (COLO 205): > 100 µM (inactive)
- GI50 (Malme-3M): > 100 µM (inactive)
- GI50 (HL-60): > 100 µM (inactive)
- GI50 (NCI-H23): > 100 µM (inactive)
- GI50 (LXFL 529): > 100 µM (inactive)
- GI50 (A498): > 100 µM (inactive)
- GI50 (HT-29): > 100 µM (inactive)
- GI50 (SN12C): > 100 µM (inactive)
- GI50 (KM-20L2): > 100 µM (inactive)
- GI50 (SNB-19): > 100 µM (inactive)
- GI50 (M19-MEL): > 100 µM (inactive)
- GI50 (KM12): > 100 µM (inactive)
- GI50 (RXF 393): > 100 µM (inactive)
- GI50 (TK-10): > 100 µM (inactive)
- GI50 (HOP-18): > 100 µM (inactive)
- GI50 (SNB-75): > 100 µM (inactive)
- GI50 (SF-295): > 100 µM (inactive)
- GI50 (EKVX): > 100 µM (inactive)
- GI50 (ACHN): > 100 µM (inactive)
- GI50 (SF-268): > 100 µM (inactive)
- GI50 (IGROV-1): > 100 µM (inactive)

SMILES: Cc1ccc([N+](=O)[O-])cc1NC(=O)C(=O)C(C(=O)c1ccccc1F)C1OC(=O)c2ccccc21 (stereo not given)
- GI50 (CCRF-CEM): 26.8 µM (inactive)
- GI50 (SK-OV-3): 46.5 µM (inactive)
- GI50 (U-251): 18.1 µM (inactive)
- GI50 (HOP-62): 40.7 µM (inactive)
- GI50 (HCT-15): 26.7 µM
- GI50 (NCI-H460): 38.9 µM (inactive)
- GI50 (M14): 66.8 µM (inactive)
- GI50 (DLD-1): 41.5 µM (inactive)
- GI50 (XF498): 81.5 µM (inactive)
- GI50 (UACC-257): > 100 µM (inactive)
- GI50 (OVCAR-4): 65 µM (inactive)
- GI50 (HCC 2998): 29.7 µM (inactive)
- GI50 (HOP-92): > 100 µM (inactive)
- GI50 (DMS-273): 36.3 µM (inactive)
- GI50 (SK-MEL-2): 25.9 µM (inactive)
- GI50 (NCI-H226): 16 µM (inactive)
- GI50 (SNB-78): > 100 µM (inactive)
- GI50 (OVCAR-8): 25.2 µM (inactive)
- GI50 (A549): 50.1 µM (inactive)
- GI50 (SK-MEL-28): 36.4 µM (inactive)
- GI50 (RPMI-8226): 29.4 µM (inactive)
- GI50 (SR): 30.3 µM (inactive)
- GI50 (UACC-62): 33.7 µM (inactive)
- GI50 (HCT-116): 31.5 µM (inactive)
- GI50 (SF-539): 24.5 µM (inactive)
- GI50 (DMS-114): 16.5 µM (inactive)
- GI50 (CAKI-1): 53.8 µM (inactive)
- GI50 (SK-MEL-5): 63.1 µM (inactive)
- GI50 (NCI-H522): 20.3 µM (inactive)
- GI50 (LOX IMVI): 27.5 µM (inactive)
- GI50 (OVCAR-5): 61.4 µM (inactive)
- GI50 (UO-31): 49.1 µM (inactive)
- GI50 (RXF 631): 32.7 µM (inactive)
- GI50 (SW-620): 35.1 µM (inactive)
- GI50 (MOLT-4): 36.1 µM (inactive)
- GI50 (K562): 32.7 µM (inactive)
- GI50 (COLO 205): 38.9 µM (inactive)
- GI50 (HL-60): 26.9 µM (inactive)
- GI50 (NCI-H23): 38.5 µM (inactive)
- GI50 (LXFL 529): 34 µM (inactive)
- GI50 (A498): 98.4 µM (inactive)
- GI50 (HT-29): 38.5 µM (inactive)
- GI50 (SN12C): 33.8 µM (inactive)
- GI50 (KM-20L2): 34.6 µM (inactive)
- GI50 (SNB-19): 15.3 µM (inactive)
- GI50 (M19-MEL): 33.4 µM (inactive)
- GI50 (KM12): 52.5 µM (inactive)
- GI50 (RXF 393): 20.5 µM (inactive)
- GI50 (TK-10): > 100 µM (inactive)
- GI50 (SNB-75): 38.5 µM (inactive)
- GI50 (SF-295): 42.6 µM (inactive)
- GI50 (EKVX): 46 µM (inactive)
- GI50 (ACHN): 62.2 µM (inactive)
- GI50 (SF-268): 25.5 µM (inactive)
- GI50 (IGROV-1): 59.7 µM (inactive)
